Results on two compounds are retold here after ChEMBL document CHEMBL5370651, “Integrating Taxonomic and Chemical Diversity of Mangrove-Associated Ascomycetes to Discover or Repurpose Bioactive Natural Products” (J Nat Prod, 2023).

≈ marks a conversion by molar mass, not a printed value.

One experiment relates to Acinetobacter baumannii. The experiment in a line: Antibacterial activity against pandrug-resistant Acinetobacter baumannii A564 assessed as bacterial growth inhibition at 50 ug/ml incubated for 16 hrs by broth microdilution method relative to control. Type of experiment: functional. The note with it: read-out: GI.
The subject of another experiment is Staphylococcus aureus. The experiment can be described thus: Antibacterial activity against Staphylococcus aureus assessed as reduction in bacterial growth incubated for 16 hrs by broth microdilution method. It is filed as functional.
Experiment [1] concerns Staphylococcus epidermidis. The experiment in a line: Antibacterial activity against Staphylococcus epidermidis 42R assessed as reduction in bacterial growth incubated for 16 hrs by broth microdilution method. Type of experiment: functional.
The target in experiment [2] is T1, Tyrosine-protein phosphatase non-receptor type 1 (Homo sapiens) (UniProt P18031).
T1 sequence (whole entry): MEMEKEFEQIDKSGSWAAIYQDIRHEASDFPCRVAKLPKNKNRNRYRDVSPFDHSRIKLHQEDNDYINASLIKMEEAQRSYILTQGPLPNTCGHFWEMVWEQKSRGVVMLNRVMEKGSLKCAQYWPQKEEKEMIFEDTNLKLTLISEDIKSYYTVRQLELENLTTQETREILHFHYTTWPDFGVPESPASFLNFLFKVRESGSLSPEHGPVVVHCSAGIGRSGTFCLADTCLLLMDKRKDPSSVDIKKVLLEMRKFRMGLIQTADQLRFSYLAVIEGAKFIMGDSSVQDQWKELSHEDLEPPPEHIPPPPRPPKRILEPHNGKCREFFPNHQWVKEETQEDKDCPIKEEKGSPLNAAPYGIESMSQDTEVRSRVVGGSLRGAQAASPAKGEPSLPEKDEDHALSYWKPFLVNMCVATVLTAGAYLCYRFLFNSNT
The experiment in a line: (§1) Inhibition of human PTP1B (1 to 400 residues) using pNPP as substrate preincubated for 10 mins followed by substrate addition and measured after 20 mins.

Experiment [3] concerns the target T2, Tyrosine-protein phosphatase non-receptor type 1 (Homo sapiens, UniProt P18031).
T2 sequence (P18031 whole entry): T1 sequence (whole entry)
Described as §1.

For the compound `CCCCCCCC(=O)c1c(O)cc(O)cc1CC(=O)OCC` [CYTOSPORONE B], the inhibition of growth at 50 µg/mL in the experiment on Acinetobacter baumannii is 51%. The MIC in the experiment on Staphylococcus aureus is 18 µg/mL (≈ 55.8 µM); in experiment [1] it was 21 µg/mL (≈ 65.1 µM).

As for `CC[C@H](C)C[C@H](C)[C@@H](O)[C@@H](C)/C=C(\C)[C@@H](O)[C@@H](C)/C=C(\C)[C@@H](O)[C@@H](C)/C=C(\C)C=O`, in experiment [2], the inhibition result is “Dose-Dependent Effect”. In experiment [3], this compound yielded an IC50 of 27 µM.
